Measured values: ChEMBL document CHEMBL1157272, “Four aristolochic acid esters of rearranged ent-elemane sesquiterpenes from aristolochia heterophylla” (J Nat Prod, 1999)

assay: Cytotoxicity against human HepG2(2.2.15) cells; format: functional, cell-based

Compared with `C=C[C@@]1(C)CCC=C(C[C@H](C)OC(=O)c2cc3c(c4c2c([N+](=O)[O-])cc2c(OC)cccc24)OCO3)[C@H]1C(=C)C=O` [ARISTOPHYLLIDE A], `C=C[C@@]1(C)CCC=C(C[C@@H](C)OC(=O)c2cc3c(c4c2c([N+](=O)[O-])cc2c(OC)cccc24)OCO3)[C@@H]1C(=C)C=O` [ARISTOPHYLLIDE B] is 1.8-fold higher in IC50: 5.1 µM for the first, 9.4 µM for the second. The first is the more potent here.

Going from `C=C[C@@]1(C)CCC=C(C[C@H](C)OC(=O)c2cc3c(c4c2c([N+](=O)[O-])cc2ccccc24)OCO3)[C@H]1C(=C)C=O` [ARISTOPHYLLIDE C] to `C=C[C@@]1(C)CCC=C(C[C@@H](C)OC(=O)c2cc3c(c4c2c([N+](=O)[O-])cc2ccccc24)OCO3)[C@@H]1C(=C)C=O` [ARISTOPHYLLIDE D], the IC50 rises from 6.2 µM to 13.2 µM (2.1-fold). The first is the more potent here.
